# Results published in doi:10.1101/2021.05.28.446239v2 (biorxiv, 2021).
# Columns and labels:
# full-length lungfish MR = experiment: luciferase reporter transactivation; type: cell-based, Protopterus dolloi; conditions: agonist; HEK293, TAT3-luc promoter
# [1] = system: truncated lungfish MR (MR-CDE); experiment: luciferase reporter transactivation; type: cell-based, Protopterus dolloi; conditions: agonist; HEK293, TAT3-luc promoter
SMILES,EC50 (full-length lungfish MR),EC50 [1]
C[C@]12CC[C@H]3[C@@H](CCC4=CC(=O)CC[C@@]43C)[C@@H]1CC[C@@H]2C(=O)CO [11-deoxycorticosterone],40 pM,130 pM
C[C@]12CCC(=O)C=C1CC[C@@H]1[C@@H]2CC[C@@]2(C)[C@H]1CC[C@]2(O)C(=O)CO [11-deoxycortisol],170 pM,270 pM
C[C@]12CCC(=O)C=C1CC[C@@H]1[C@@H]2[C@@H](O)C[C@]2(C=O)[C@@H](C(=O)CO)CC[C@@H]12 [aldosterone],40 pM,240 pM
C[C@]12C[C@H](O)[C@H]3[C@@H](CCC4=CC(=O)CC[C@@]43C)[C@@H]1CC[C@@H]2C(=O)CO [corticosterone],23100 pM,85500 pM
C[C@]12CCC(=O)C=C1CC[C@@H]1[C@@H]2[C@@H](O)C[C@@]2(C)[C@H]1CC[C@]2(O)C(=O)CO [cortisol],66100 pM,86700 pM
C[C@@H]1C[C@H]2[C@@H]3CCC4=CC(=O)C=C[C@]4(C)[C@@]3(F)[C@@H](O)C[C@]2(C)[C@@]1(O)C(=O)CO [dexamethasone],4700 pM,7700 pM
CC(=O)[C@H]1CC[C@H]2[C@@H]3CCC4=CC(=O)CC[C@]4(C)[C@H]3CC[C@]12C [progesterone],30 pM,44 pM
C[C@]12C=CC(=O)C=C1CC[C@H]1[C@@H]3C[C@@H](O)[C@](O)(C(=O)CO)[C@@]3(C)C[C@H](O)[C@@]12F [triamcinolone],1300 pM,2400 pM
